The source made the active and inactive calls.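 Rule for the calls: active = compounds giving half or more protection of infected cells from virus-caused growth loss, again on retest; inactive = the rest.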 Where a SMILES comes first, the peptide text is derived from it. The star is where a group is joined. Cbz = O=C(OCc1ccccc1)*
Tested on: CEM cells HIV-1 protection, formazan growth assay
Assay: NCI AIDS Antiviral Assay
Conditions: for IC50: measured here: growth of uninfected CEM cells
Procedure, shortened: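 Human CEM cells, uninfected and HIV-1-infected, received five drug concentrations, and growth was read by soluble formazan assay. Compounds giving at least 50% protection were retested; reproducible 100% protection defined confirmed active.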

O=C(CCCc1ccccc1)NO
outcome: inactive

COc1ccc(P2(=S)Oc3ccccc3-c3ccccc3O2)cc1
EC50: > 0.2 µM | IC50: 0.0631 µM

C=CCC1(Sc2ccccn2)Sc2ccc3ccccc3c2-c2c(ccc3ccccc23)S1
EC50: > 100 µM | IC50: > 100 µM

O=C(Cc1ccccc1)NN1C(=O)/C(=C\c2ccc(O)cc2)SC1=Nc1ccccc1
EC50: > 31.6 µM | IC50: > 31.6 µM

NC(CCC(=O)O)(CCC(=O)O)CCC(=O)O
outcome: inactive

C/C(=N/NC(=S)Nc1ccccc1Cl)c1ccccn1
EC50: > 0.2 µM | IC50: 0.0372 µM

COc1ccc(/C=C2\CCC(C)C3=C(c4ccc(OC)c(OC)c4)C(C#N)=C(N)OC32)cc1OC (stereo not given)
EC50: > 200 µM | IC50: 8.32 µM

COc1cc(OC)nc(-n2c(N)c(C#N)c3ccc([N+](=O)[O-])cc3c2=O)n1
EC50: > 200 µM | IC50: > 200 µM

NC(N)=NS(=O)(=O)c1ccc(NC(=O)c2cccc3c(Nc4ccc(S(N)(=O)=O)cc4)c4ccccc4nc23)cc1
EC50: > 43.7 µM | IC50: > 43.7 µM

CS(=O)(=O)c1c(N)c2nc(Cl)cn2c2nc3ccccc3nc12
EC50: > 5.75 µM | IC50: > 5.75 µM

Nc1c(C(=O)O)sc2ncccc12
EC50: 141 µM | IC50: 219 µM

O=C(C(=O)c1ccc(Cc2ccc(C(=O)C(=O)c3ccccc3)cc2)cc1)c1ccccc1
EC50: > 575 µM | IC50: > 575 µM

CC1=NC(=Cc2ccc(Cl)cc2)C(=O)N1n1c(-c2ccccc2)nc2ccccc2c1=O
EC50: > 200 µM | IC50: 75.9 µM

Cc1nn(C(=O)Cc2ccccc2)c2c1C(c1ccccc1)SC(N)=N2 (stereo not given)
EC50: 148 µM | IC50: 195 µM

Cc1[nH]c2ccccc2c1C1Cc2ccccc2N1C(=O)/C(C#N)=C/c1ccccc1 (stereo not given)
EC50: > 12.9 µM | IC50: 2.29 µM

Cc1cccc(C(=O)NCCN(C)C)c1[N+](=O)[O-]
EC50: > 200 µM | IC50: > 200 µM

CCN(CC)C1=Nc2ccccc2-n2c(C)cnc2C1
EC50: > 200 µM | IC50: > 200 µM

COC(=O)N1CC[C@]2(CC=C(C)C)c3ccccc3N(S(=O)(=O)c3ccccc3)[C@H]12
EC50: > 100 µM | IC50: 24.5 µM

C=C1C(OO)O[C@@H]2O[C@@]3(C)CC[C@H]4[C@H](C)CC[C@@H]1[C@@]24O3 (stereo not given in full)
EC50: > 200 µM | IC50: 27.5 µM

CC12CC3(O)OC(O1)C1(COC(=O)c4ccccc4)C3C[C@@]21OC1OC(COC(=O)c2cc(O)c(O)c(O)c2)C(O)C(O)C1O (stereo not given in full)
outcome: inactive

C=CCCC1CCCCNC1=S (stereo not given)
EC50: > 200 µM | IC50: > 200 µM

O=C1/C(=C/c2ccccc2)CN(C(=O)CCN2CCCC2)C/C1=C\c1ccccc1
EC50: > 575 µM | IC50: 0.813 µM

CN1C(Cl)=NS(=O)(=O)c2ccccc21
EC50: > 200 µM | IC50: > 200 µM

O=C(NC1C(=O)NNC1c1ccccc1Cl)c1ccccc1 (stereo not given)
EC50: > 158 µM | IC50: > 158 µM

C#CCOCn1cnc2c(Sc3c([N+](=O)[O-])ncn3C)ncnc21
EC50: > 105 µM | IC50: 38 µM

COc1cc2c(cc1OC)C1[C@@H](c3ccccc3)OCN1CC2 (stereo not given in full)
outcome: inactive

COC(=O)Cc1c([C@H]2[C@H](CC(=O)OC)c3ccccc3N2S(=O)(=O)c2ccc(C)cc2)[nH]c2ccccc12
EC50: > 102 µM | IC50: 11.5 µM

CCOC(=O)/C(I)=C/c1cc(OC)c(OC)c(OC)c1
EC50: > 141 µM | IC50: 85.1 µM

O=C1c2cc([N+](=O)[O-])cnc2S(=O)(=O)N1c1ccc(Oc2ccccc2)cc1
EC50: > 200 µM | IC50: 105 µM

CN(C)Cc1cc(N=Nc2c(Cl)cccc2Cl)ccc1O
EC50: > 200 µM | IC50: 83.2 µM

COc1ccc(OC)c2c1C=C[C@H](C1(C)SCCS1)C2C(C)=O (stereo not given in full)
EC50: > 200 µM | IC50: 8.91 µM

COC1=C(C)C(=O)C2C(C1=O)C(c1ccc(OC)c(OC)c1)[C@H]2C (stereo not given in full)
EC50: > 151 µM | IC50: 135 µM

N#Cc1c(O)c2ccccc2[nH]c1=O
EC50: > 200 µM | IC50: > 200 µM

CCOC(=O)c1ccc(NCc2ccc3oc(=O)c(-c4ccccc4)nc3c2)cc1
EC50: > 135 µM | IC50: 38.9 µM

O=C(NO)NCCCl
EC50: > 200 µM | IC50: > 200 µM

CCOC(=O)C1(C(=O)OCC)Cc2c([nH]c3ccccc23)CN1C(=O)c1ccccc1
EC50: > 22.4 µM | IC50: > 22.4 µM

CC(=O)Oc1ccc2cc(Oc3cc(Cl)c(Cl)cc3Cl)c(=O)oc2c1
EC50: > 200 µM | IC50: 93.3 µM

O=c1c2ccccc2nc2[nH]ncn12
EC50: > 200 µM | IC50: 117 µM

CC1CCC2CC(=O)NC(=O)CC12 (stereo not given)
EC50: > 457 µM | IC50: > 457 µM

O=[As](O)(O)c1ccccc1F
EC50: > 200 µM | IC50: 141 µM

CCOC(=O)NP(=O)(Nc1ccc(C)cc1)Nc1ccc(C)cc1
EC50: > 200 µM | IC50: > 200 µM

CC(CCc1nc2ccccc2[nH]1)C1CCC2C3C(C[C@H](O)[C@]12C)[C@@]1(C)CC[C@@H](O)C[C@H]1C[C@H]3O (stereo not given in full)
EC50: > 50.1 µM | IC50: 10 µM

Cc1cc2nc(-c3ccccn3)c(-c3ccccn3)nc2cc1C
EC50: > 200 µM | IC50: > 200 µM

CCOC(=O)C1c2[nH]c3ccccc3c2CCN1C(=O)c1ccc(OC)o1 (stereo not given)
EC50: > 51.3 µM | IC50: 38.9 µM

C=CCC1C(=O)CC2(C)C(CC=C)C(=O)CC12C (stereo not given)
outcome: inactive

O=C1NC2c3c(I)sc(I)c3C(O)C2O1 (stereo not given)
EC50: > 200 µM | IC50: 141 µM

NC(=N/N=C(/c1ccccc1)c1ccc(N)cc1)/C(N)=N\N=C(/c1ccccc1)c1ccc(N)cc1
outcome: inactive

CC1=NN(c2nc(N)nc(CSc3cc(Cl)c(C)cc3S(N)(=O)=O)n2)C(C)(C)C1
outcome: inactive

CC1(C)OC(=O)CC(=O)O1
EC50: > 200 µM | IC50: > 200 µM

Cc1cc(N(CCC#N)CCC#N)ccc1N=Nc1ccc([N+](=O)[O-])cc1
EC50: > 14.5 µM | IC50: > 14.5 µM

CCOCC(Br)C(OCC)OCC (stereo not given)
outcome: inactive

C#CCN(C(=O)C(F)(F)F)c1ccc(C(=O)c2ccc(N(CC#C)C(=O)C(F)(F)F)cc2)cc1
EC50: > 28.2 µM | IC50: > 28.2 µM

CCCCC1(N=[N+]=[N-])C(=O)c2cccc3c2N(CCC3)C1=O (stereo not given)
EC50: > 200 µM | IC50: > 200 µM

CC1C(=O)C(C)C(c2ccccc2)NC1c1ccccc1 (stereo not given)
EC50: > 67.6 µM | IC50: > 67.6 µM

Oc1ccc2ccccc2c1-c1c(Nc2ccccc2)ccc2ccccc12
EC50: > 50.1 µM | IC50: 8.91 µM

COc1c2cc(C(C)(C)C)cc1Cc1cccc(c1O)Cc1cc(C(C)(C)C)cc(c1OC)Cc1cccc(c1O)Cc1cc(C(C)(C)C)cc(c1OC)Cc1cccc(c1O)C2
EC50: > 151 µM | IC50: > 151 µM

O=C(OCCSSCCOC(=O)c1ccc([N+](=O)[O-])cc1)c1ccc([N+](=O)[O-])cc1
EC50: > 200 µM | IC50: 12 µM

CCOC(=O)c1c(C)c(N=O)c2ccccn12
EC50: > 200 µM | IC50: 5.62 µM

COC(=O)CNC(=O)C(NC(=O)C1CCCN1C(=O)OCc1ccccc1)C(C)C (stereo not drawn) (Cbz-Pro-Val-Gly-OMe; configuration not given here)
EC50: > 224 µM | IC50: 37.2 µM

CC(C)C(/C=C/c1ccc(Cl)c(Cl)c1)=N\NC(=O)N/N=C(/C=C/c1ccc(Cl)c(Cl)c1)C(C)C
EC50: > 200 µM | IC50: > 200 µM

O=c1[nH]c(O)c(/C=N\C(=S)Nc2cc(Cl)ccc2Cl)c(=O)[nH]1
EC50: > 200 µM | IC50: 162 µM

O=C1C=C(Nc2ccc(Cl)cc2Cl)c2ccccc2C1=O
EC50: > 1.7 µM | IC50: > 1.7 µM

COC(=O)c1c(C)cc(OC(=O)c2c(C)cc(O)c(/C=N\O)c2O)c(C)c1O
EC50: > 151 µM | IC50: 9.77 µM

N#CCC(=O)Nc1ccccc1O
EC50: > 708 µM | IC50: > 708 µM
